One assay has as its target T1, wildtype Kras / hSOS1 (Homo sapiens, UniProt P01116).
T1 construct: made in house; host or cells: E. coli BL21 (DE3)
Nature of the assay: HTRF assay, wildtype Kras / SOS1 interaction. The class given is binding. Particulars: read-out: IC50 against wildtype Kras. The text has this: (§1) This assay can be also used to assess a selective inhibition of a mutant Ras protein relative to a wildtype, or relative to a different mutant Ras protein. For example, the equilibrium interaction of wildtype Kras or K-Ras mutant (e.g., wildtype or a mutant thereof including those mentioned in Example 6) with SOS1 (e.g., hSOS1) can be assessed as a proxy or an indication for a subject compound's ability to bind and inhibit Ras protein. HTRF assay detects from (i) a fluorescence resonance energy transfer (FRET) donor (e.g., antiGST-Europium) that is bound to GST-tagged K-Ras mutant to (ii) a FRET acceptor (e.g., anti-6His-XL665) bound to a His-tagged hSOS1.
(§2) The assay buffer can contain ˜5 mM HEPES pH 7.4, ˜150 mM NaCl, ˜ 1 mM DTT, 0.05% BSA and 0.0025% (v/v) Igepal. A Ras working solution is prepared in an assay buffer containing typically a suitable amount of the protein construct (e.g., GST-tagged K-Ras mutant) and the FRET donor (e.g., antiGST-Eu(K) from Cisbio, France). A SOS1 working solution is prepared in an assay buffer containing suitable amount of the protein construct (e.g., His-hSOS1) and the FRET acceptor (e.g., anti-6His-XL665 from Cisbio, France). A suitable amount of the protein construct will depend on the range of activity or range of IC50 values being detected or under investigation. For detecting IC50 within a range of 500 nM, the protein constructs of the same range of molarity can be utilized.
(§3) A fixed volume of DMSO with or without test compound is transferred into a 384-well plate. Ras working solution is added to all wells of the test plate. SOS1 working solution is added to all wells except for those that are subsequently filled the inhibitor control solution. Upon incubation for about 10 minutes or longer, the fluorescence is measured with a M1000Pro plate reader (Tecan) using HTRF detection (excitation 337 nm, emission 1: 620 nm, emission 2: 665 nm). Compounds are tested in duplicates at different concentrations (for example, 10 μM, 2.5 μM, 0.63 μM, 0.16 μM, 0.04 µM, 0.01 μM test compound). The ratiometric data (i.e., emission 2 divided by emission 1) is used to calculate IC50 values against Ras using GraphPad Prism (GraphPad software). Following this general procedure, samples were tested with or without a subject compound disclosed herein including compounds exemplified in Table 1 to assess their abilities to inhibit K-Ras signaling or their respective IC50 values against a given Ras protein (e.g., a given mutant K-Ras) of interest.
A general note: In TR-FRET formats the signal depends on donor and acceptor labels being close together.

In assay [1] the target is GST-tagged K-Ras mutant / His-tagged hSOS1 (Homo sapiens, UniProt P01116). The experiment in a line: HTRF assay, K-Ras mutant / SOS1 interaction. The format is binding. Particulars: read-out: IC50 against mutant Kras.
GST-tagged K-Ras mutant / His-tagged hSOS1, sequence (P01116 whole entry G12D, form open): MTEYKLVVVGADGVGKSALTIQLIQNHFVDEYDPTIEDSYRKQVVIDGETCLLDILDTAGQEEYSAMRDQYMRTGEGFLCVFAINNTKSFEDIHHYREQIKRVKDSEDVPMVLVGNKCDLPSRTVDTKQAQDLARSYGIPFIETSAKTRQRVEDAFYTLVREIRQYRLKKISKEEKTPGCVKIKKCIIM
Description: as §1, §2, §3

The mark [2] stands for this setting: compound nos. 102-196, general methodology of example 5.
Where [3] appears, read: compound nos. 201-213, general methodology of example 5.

Usually IC50 stands for the concentration that inhibits the measured activity by half.

Where two headings read alike, the source gives them in different places.

T1 sequence (P01116 1-188 isoform P01116-2): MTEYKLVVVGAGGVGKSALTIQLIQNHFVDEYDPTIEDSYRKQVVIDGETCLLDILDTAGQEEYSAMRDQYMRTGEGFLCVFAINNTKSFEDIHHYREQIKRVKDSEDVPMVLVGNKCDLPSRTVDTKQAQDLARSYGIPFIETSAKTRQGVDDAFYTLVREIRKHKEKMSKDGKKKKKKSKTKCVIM

For the molecule `CNCCN1[C@@H]2CC[C@H]1CN(c1nc(OCC34CCCN3CCC4)nc3c(F)c(-c4ccc(F)c5sc(N)nc45)c(Cl)cc13)C2` [Compound 656, 4-(6-chloro-8-fluoro-4-((1R,5S)-8-(2-(methyl-amino)-ethyl)-3,8-diaza-bicyclo[3.2.1]octan-3-yl)-2-((tetrahydro-1H-pyrrol-izin-7a(5H)-yl)methoxy)-quinazolin-7-yl)-7-fluoro-benzo[d]thiazol-2-amine], the IC50 on wildtype Kras / hSOS1 (compound nos. 401-703) is above 500 nM; in assay [1] (compound nos. 401-703) it was below 500 nM.
Turning to `CN1CCC[C@H]1COc1nc(N2CCNCC(F)(F)C2)c2cc(Cl)c(-c3ccc(F)c4sc(N)nc34)c(F)c2n1` [Compound 104, 4-(6-chloro-4-(6,6-difluoro-1,4-diazepan-1-yl)-8-fluoro-2-(((S)-1-methylpyrrolidin-2-yl)methoxy)quinazolin-7-yl)-7-fluorobenzo[d]thiazol-2-amine], the IC50 (on wildtype Kras / hSOS1 (setting [2]); in assay [1] (setting [2])) was below 500 nM throughout.
For the molecule `Nc1nc2c(-c3c(Cl)cc4c(N5CC6CCC(C5)O6)nc(OC[C@@]56CCCN5C[C@H](F)C6)nc4c3F)ccc(F)c2s1` [Compound 203, 4-(4-(8-oxa-3-azabicyclo[3.2.1]octan-3-yl)-6-chloro-8-fluoro-2-(((2R,7aS)-2-fluorohexahydro-1H-pyrrolizin-7a-yl)methoxy)quinazolin-7-yl)-7-fluorobenzo[d]thiazol-2-amine], the IC50 (at wildtype Kras / hSOS1 (setting [3]); in assay [1] (setting [3])) was below 1500 nM throughout.
As to `CN1CCC[C@H]1COc1nc(N2CCCCC(O)C2)c2cc(Cl)c(-c3cccc4sc(N)nc34)c(F)c2n1` (stereo partly drawn) [Compound 506, 1-(7-(2-aminobenzo[d]thia-zol-4-yl)-6-chloro-8-fluoro-2-(((S)-1-methylpyrrolidin-2-yl)methoxy)quinazolin-4-yl)azepan-3-ol], the IC50 at wildtype Kras / hSOS1 (compound nos. 401-703) was above 500 nM; in assay [1] (compound nos. 401-703), below 500 nM.
For the molecule `CN1C[C@H](F)C[C@H]1COc1nc(N2CCNCC(F)(F)C2)c2cc(Cl)c(-c3cccc4sc(N)nc34)c(F)c2n1` [Compound 146, 4-(6-chloro-4-(6,6-difluoro-1,4-diazepan-1-yl)-8-fluoro-2-(((2S,4R)-4-fluoro-1-methylpyrrolidin-2-yl)meth-oxy)quinazolin-7-yl)benzo-[d]thiazol-2-amine], the IC50 (on wildtype Kras / hSOS1 (setting [2]); in assay [1] (setting [2])) was below 500 nM each time.
In the case of `CN1CCC[C@H]1COc1nc2c(c(N3CCNCC(F)(F)C3)n1)CCC(c1cccc3sc(N)nc13)C2` (stereo partly drawn) [Compound 432, 4-(4-(6,6-difluoro-1,4-diazepan-1-yl)-2-(((S)-1-methylpyrrolidin-2-yl)methoxy)-5,6,7,8-tetrahydroquinazolin-7-yl)benzo[d]thiazol-2-amine], the figures for the IC50 (on wildtype Kras / hSOS1 (compound nos. 401-703); in assay [1] (compound nos. 401-703)) were below 500 nM and above 500 nM, respectively.
On to `CN1CCC[C@H]1COc1nc(N2CCNCC(F)(F)C2)c2cc(Cl)c(-c3cccc4cnc(N)nc34)c(F)c2n1` [Compound 602, 6-chloro-4-(6,6-difluoro-1,4-diazepan-1-yl)-8-fluoro-2-(((S)-1-methylpyrrolidin-2-yl)methoxy)-[7,8′-biquin-azolin]-2′-amine], for which the IC50 (at wildtype Kras / hSOS1 (compound nos. 401-703); in assay [1] (compound nos. 401-703)) was above 500 nM throughout.
Turning to `Cc1ccc2sc(N)nc2c1-c1c(Cl)cc2c(N3CC4CCC(C3)N4)nc(OCC34CCCN3CCC4)nc2c1F` [Compound 468, 4-(4-(3,8-diazabicyclo-[3.2.1]octan-3-yl)-6-chloro-8-fluoro-2-((tetrahydro-1H-pyrrolizin-7a(5H)-yl)meth-oxy)quinazolin-7-yl)-5-methylbenzo[d]thiazol-2-amine], the IC50 (at wildtype Kras / hSOS1 (compound nos. 401-703); in assay [1] (compound nos. 401-703)) was below 500 nM in each case.
`CO[C@@H]1C[C@@H](COc2nc(N3CCNCC(F)(F)C3)c3cc(Cl)c(-c4cccc5sc(N)nc45)c(F)c3n2)N(C)C1` [Compound 121, 4-(6-chloro-4-(6,6-difluoro-1,4-diazepan-1-yl)-8-fluoro-2-(((2S,4R)-4-methoxy-1-methylpyrrolidin-2-yl)-methoxy)quinazolin-7-yl)-benzo[d]thiazol-2-amine]: the IC50 (on wildtype Kras / hSOS1 (setting [2]); in assay [1] (setting [2])) was below 500 nM each time.
